This is an account of results in US20230332103A1, “Methods and Compositions for Generating Human Forebrain Neural Progenitor Cells and for Maturation Thereof to Parvalbumin+ Interneurons” (Trailhead Biosystems Inc., priority 2021, published 2023).

Entries after “also recorded” stand apart in the source; their conditions may differ.

Assay type in all cases: cell-based, human
Assay [1] concerns forebrain-committed neural stem cells (stage 1 neural stem cells). Description: HD-DoE 12-factor experiment for stage 2 recipe, optimized for NKX2-1. The following applies: model maximized for NKX2-1 / dynamic profile, FIG. 7 and 8. In a few lines:
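Forebrain-committed neural stem cells treated for 3 days after stage 1 with combinations of 12 factors (LDN193189, BMP7, PD0325901, MK2206, A8301, XAV939, CHIR99021, purmorphamine, SANT-1, AGN193109, TTNPB, GSI-XX). Response scored as maximal NKX2-1 and minimal PAX6 expression.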

The subject of a further assay is MGE progenitor cells. Description: HD-DoE 12-factor experiment for stage 4 recipe, optimized for MEF2C. The text has this: These effectors are small molecules or proteins. They are commonly used during stepwise differentiation of stem cells to specific fates. The choice of the effectors was based on current literature on neural induction in forebrain region of developing brain and differentiation of stem cells to neural progenitors.
To evaluate the effectors, experiments with at least 8 factors were designed that can assess the response of cells to 48 or more different combinations of effectors in a range of concentrations. To analyze the models, we focused on expression of genes involved in development and patterning of the forebrain interneurons maturation including LHX6 (Yuan et al. (2018) Elife, 7:e37382), DLX5 (Wang et al. (2010) J. Neuroscience 30:5334-5345), ASCL1 (Shi et al. (2016) J. Biol. Chem. 291:13560-13570). At later stages we focused on interneuron maturation genes including Parvalbumin and absence of somatostatin (Horn and Nicoll (2018) Proc. Natl. Acad. Sci. 115:589-594). The impacts of each effector on gene expression level are defined by a parameter called factor contribution that is calculated for each effector during the modeling.
To identify the recipe of stage 4 of differentiation, 48 different combinations of effectors generated using Design-of-Experiments compression through D-optimality were robotically prepared. The effector combinations were prepared in a basal media and were subsequently added to the cells, which were then allowed to differentiate. Three days later RNA extraction was performed, and gene expression was obtained using quantitative PCR analysis. The data was normalized and modeled using partial least squares regression analysis to the effector design, resulting in the generation of gene-specific models, which after model tuning for maximal predictive power, provided explanation of the effectors ability to control the expression of individual genes, combinatorically, and individually. Solutions within the tested space could then be explored to address desirability. […] Valproic Acid can inhibit histone deaceylases and increase γ-aminobutyric acid (GABA). […] GDNF is the […] Glial cell line-derived neurotrophic factor and can activate the GDNF pathway.
To find the set of factors that have the potential to optimize MEF2C in this experiment, a new assessment was done through dynamic profile analysis with focus on maximal expression of MEF2C (FIG. 20).

The subject of assay [2] is stage 2 neural stem cells (cells treated with stage 1 and stage 2 media). Nature of the assay: HD-DoE experiment for stage 3 recipe, optimized for ASCL1. As to the method:
To further guide the cells to medial ganglionic eminence progenitor fate, an additional HD-DoE experiment was performed for 3 days on cells that were treated with stage 1 and stage 2 media for total of 6 days prior to start of the experiment. This experiment included 13 effectors, LDN193189, A8301, GNF5837, AZD3147, GSI-XX, Takinib, PD0325901, PD173074, BLU9931, IGF-1, MHY1485, Purmorphamine and Prostratin. In this model, we focused on maximum expression of genes expressed in neuronal progenitor cells in medial ganglionic eminence (MGE) region including ASCL1, LHX6 and DLX1 (Silberberg et al. (2016) Neuron 92:59-74). When the model was optimized for maximum expression of ASCL1 at 1700, A8301, GSI-XX, Purmorphamine and Takinib, which is an inhibitor of TAK1 pathway, had the highest factor contributions, 18.1, 14.1, 12.7 and 10.1 respectively. […]

Assay [3] deals with stage 2 neural stem cells. Nature of the assay: factor criticality analysis (dynamic profile analysis) of stage 3 recipe. Details: unit not given here. As to conditions: other five factors present. On the procedure: To assess the impact of the elimination of each validated factor, dynamic profile analysis was used and compared the expression level of genes of interest in absence of each finalized factor while others are present. […] In the stage 3 recipe, each of the six finalized factors were removed while the other five factors remained present and the expression levels of ASCL1, DLX1 and LHX6 were assessed compared to the presence of all six factors. […] As expected, in the absence of IGF-1, the value of DLX1 increases to 410, however, ASCL1 and LHX6 decreased to 1390 and 220, respectively.

[4] abbreviates: dynamic profile analysis, FIG. 10.

Take `c1ccc2c(-c3cnn4cc(-c5ccc(N6CCNCC6)cc5)cnc34)ccnc2c1` [LDN193189]: the “impact on expression of NKX2-1” value in assay [1] is “increase its expression level”. Also, in the assay on MGE progenitor cells (dynamic profile analysis, FIG. 20), the “impact on expression of MEF2C” value is “negative effect”. The “factor contribution on expression of MEF2C” value in the assay on MGE progenitor cells (significant negative effect, model optimized for maximal expression of MEF2C) worked out at 11.

With `c1ccc2c(Oc3nc(Nc4ccc(N5CCOCC5)cc4)c4ncn(C5CCCCC5)c4n3)cccc2c1` [Purmorphamine], the “impact on expression of NKX2-1” value in assay [1] is “increase its expression level”. Besides, in assay [2] (setting [4]), the “impact on expression of ASCL1” value is reported as “positive trends; also recorded: Positive impact”, the “impact on expression of DLX1” value is reported as “did not have a significant negative impact” and the “impact on expression of LHX6” value is “positive trends; also recorded: Positive impact”. In addition, in assay [2] (positive, model optimized for maximum expression of ASCL1 at 1700, FIG. 9), the “factor contribution on expression of ASCL1” value is reported as 12.7. The “expression level of DLX1 when the effector is removed” value in assay [3] (220 with all six factors) is “stayed the same”. In assay [3] (240 with all six factors), the “expression level of LHX6 when the effector is removed” value is reported as 190. In assay [3] (1650 with all six factors), the “expression level of ASCL1 when the effector is removed” value is reported as 1200.
